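Assay format: 96-well plates, 48-hour exposure. Here, GI50 denotes the concentration required for 50% inhibition of growth.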 Active and inactive are the calls of the source. No stated cut-off is given here; in the data, active = GI50 up to about 1.1 µM and inactive = higher.
Tests used:
Assay in all cases: DTP human tumour cell line panel, 48 h
786-0 = system: 786-0
A498 = system: A498
A549 = system: A549
ACHN = system: ACHN
BT-549 = system: BT-549
CAKI-1 = system: CAKI-1
CCRF-CEM = system: CCRF-CEM
COLO 205 = system: COLO 205
DU-145 = system: DU-145
HCC 2998 = system: HCC 2998
HCT-116 = system: HCT-116
HCT-15 = system: HCT-15
HL-60 = system: HL-60
HOP-62 = system: HOP-62
HOP-92 = system: HOP-92
HT-29 = system: HT-29
Hs-578T = system: Hs-578T
IGROV-1 = system: IGROV-1
K562 = system: K562
KM12 = system: KM12
LOX IMVI = system: LOX IMVI
M14 = system: M14
MCF7 = system: MCF7
MDA-MB-231 = system: MDA-MB-231
MDA-MB-435 = system: MDA-MB-435
MOLT-4 = system: MOLT-4
NCI-H226 = system: NCI-H226
NCI-H23 = system: NCI-H23
NCI-H460 = system: NCI-H460
NCI/ADR-RES = system: NCI/ADR-RES
OVCAR-3 = system: OVCAR-3
OVCAR-4 = system: OVCAR-4
OVCAR-5 = system: OVCAR-5
OVCAR-8 = system: OVCAR-8
PC-3 = system: PC-3
RPMI-8226 = system: RPMI-8226
RXF 393 = system: RXF 393
SF-268 = system: SF-268
SF-539 = system: SF-539
SK-MEL-28 = system: SK-MEL-28
SK-MEL-2 = system: SK-MEL-2
SK-MEL-5 = system: SK-MEL-5
SK-OV-3 = system: SK-OV-3
SN12C = system: SN12C
SNB-19 = system: SNB-19
SNB-75 = system: SNB-75
SR = system: SR
SW-620 = system: SW-620
T47D = system: T47D
U-251 = system: U-251
UACC-257 = system: UACC-257
UACC-62 = system: UACC-62
EKVX = system: EKVX
MDA-N = system: MDA-N
Malme-3M = system: Malme-3M
NCI-H522 = system: NCI-H522
SF-295 = system: SF-295
TK-10 = system: TK-10
UO-31 = system: UO-31

C=CCc1cccc2cc(C(=O)Nc3ccccn3)c(=N)oc12
GI50 (786-0): 28.7 µM (inactive) | GI50 (A498): > 100 µM (inactive) | GI50 (A549): > 100 µM (inactive) | GI50 (ACHN): 45.4 µM (inactive) | GI50 (BT-549): > 100 µM (inactive) | GI50 (CAKI-1): > 100 µM (inactive) | GI50 (CCRF-CEM): > 100 µM (inactive) | GI50 (COLO 205): > 100 µM (inactive) | GI50 (DU-145): > 100 µM (inactive) | GI50 (HCC 2998): > 100 µM (inactive) | GI50 (HCT-116): 56.6 µM (inactive) | GI50 (HCT-15): > 100 µM | GI50 (HL-60): > 100 µM (inactive) | GI50 (HOP-62): > 100 µM (inactive) | GI50 (HOP-92): > 100 µM (inactive) | GI50 (HT-29): > 100 µM (inactive) | GI50 (Hs-578T): > 100 µM (inactive) | GI50 (IGROV-1): > 100 µM (inactive) | GI50 (K562): > 100 µM (inactive) | GI50 (KM12): > 100 µM (inactive) | GI50 (LOX IMVI): > 100 µM (inactive) | GI50 (M14): > 100 µM (inactive) | GI50 (MCF7): > 100 µM (inactive) | GI50 (MDA-MB-231): > 100 µM (inactive) | GI50 (MDA-MB-435): > 100 µM (inactive) | GI50 (MOLT-4): > 100 µM (inactive) | GI50 (NCI-H226): > 100 µM (inactive) | GI50 (NCI-H23): > 100 µM (inactive) | GI50 (NCI-H460): > 100 µM (inactive) | GI50 (NCI/ADR-RES): > 100 µM (inactive) | GI50 (OVCAR-3): > 100 µM (inactive) | GI50 (OVCAR-4): > 100 µM (inactive) | GI50 (OVCAR-5): > 100 µM (inactive) | GI50 (OVCAR-8): > 100 µM (inactive) | GI50 (PC-3): > 100 µM (inactive) | GI50 (RPMI-8226): > 100 µM (inactive) | GI50 (RXF 393): > 100 µM (inactive) | GI50 (SF-268): > 100 µM (inactive) | GI50 (SF-539): 92.5 µM (inactive) | GI50 (SK-MEL-28): > 100 µM (inactive) | GI50 (SK-MEL-2): > 100 µM (inactive) | GI50 (SK-MEL-5): > 100 µM (inactive) | GI50 (SK-OV-3): > 100 µM (inactive) | GI50 (SN12C): > 100 µM (inactive) | GI50 (SNB-19): > 100 µM (inactive) | GI50 (SNB-75): > 100 µM (inactive) | GI50 (SR): > 100 µM (inactive) | GI50 (SW-620): > 100 µM (inactive) | GI50 (T47D): 55.5 µM (inactive) | GI50 (U-251): > 100 µM (inactive) | GI50 (UACC-257): > 100 µM (inactive) | GI50 (UACC-62): > 100 µM (inactive)

Oc1c(Cl)c(Cl)c(O)c2c1CCCC2
GI50 (786-0): 1.93 µM (inactive) | GI50 (A498): 19.1 µM (inactive) | GI50 (A549): 21 µM (inactive) | GI50 (ACHN): 1.75 µM (inactive) | GI50 (BT-549): 14.8 µM (inactive) | GI50 (CCRF-CEM): 2.08 µM (inactive) | GI50 (COLO 205): 1.83 µM (inactive) | GI50 (EKVX): 7.85 µM (inactive) | GI50 (HCC 2998): 14.3 µM (inactive) | GI50 (HCT-116): 1.51 µM (inactive) | GI50 (HCT-15): 12.9 µM | GI50 (HOP-62): 25.4 µM (inactive) | GI50 (HOP-92): 1.85 µM (inactive) | GI50 (HT-29): 19.1 µM (inactive) | GI50 (Hs-578T): 14.6 µM (inactive) | GI50 (KM12): 12.4 µM (inactive) | GI50 (LOX IMVI): 3.48 µM (inactive) | GI50 (M14): 15.5 µM (inactive) | GI50 (MCF7): 2.13 µM (inactive) | GI50 (MDA-MB-231): 15.4 µM (inactive) | GI50 (MDA-MB-435): 16.4 µM (inactive) | GI50 (MDA-N): 14.3 µM (inactive) | GI50 (Malme-3M): 2.84 µM (inactive) | GI50 (NCI-H226): 1.88 µM (inactive) | GI50 (NCI-H23): 18.4 µM (inactive) | GI50 (NCI-H460): 15.1 µM (inactive) | GI50 (NCI-H522): 1.97 µM (inactive) | GI50 (NCI/ADR-RES): 15.5 µM (inactive) | GI50 (OVCAR-8): 18.7 µM (inactive) | GI50 (PC-3): 17.7 µM (inactive) | GI50 (RPMI-8226): 2.72 µM (inactive) | GI50 (RXF 393): 10.6 µM (inactive) | GI50 (SF-268): 11.6 µM (inactive) | GI50 (SF-295): 18.5 µM (inactive) | GI50 (SF-539): 8.69 µM (inactive) | GI50 (SK-MEL-28): 13.6 µM (inactive) | GI50 (SK-MEL-2): 19.7 µM (inactive) | GI50 (SK-MEL-5): 13 µM (inactive) | GI50 (SK-OV-3): 14.2 µM (inactive) | GI50 (SN12C): 14.7 µM (inactive) | GI50 (SNB-19): 16 µM (inactive) | GI50 (SW-620): 1.99 µM (inactive) | GI50 (TK-10): 3.37 µM (inactive) | GI50 (U-251): 17.5 µM (inactive) | GI50 (UACC-257): 16.8 µM (inactive) | GI50 (UACC-62): 13.4 µM (inactive) | GI50 (UO-31): 2.36 µM (inactive)

CC(=O)[C@@]1(C)CC2(CCN(C)CC2)OC1C (some centres undefined)
GI50 (786-0): > 100 µM (inactive) | GI50 (A498): > 100 µM (inactive) | GI50 (A549): > 100 µM (inactive) | GI50 (ACHN): > 100 µM (inactive) | GI50 (BT-549): > 100 µM (inactive) | GI50 (CAKI-1): > 100 µM (inactive) | GI50 (COLO 205): > 100 µM (inactive) | GI50 (DU-145): > 100 µM (inactive) | GI50 (EKVX): > 100 µM (inactive) | GI50 (HCT-116): > 100 µM (inactive) | GI50 (HCT-15): > 100 µM | GI50 (HOP-62): > 100 µM (inactive) | GI50 (HOP-92): > 100 µM (inactive) | GI50 (HT-29): > 100 µM (inactive) | GI50 (IGROV-1): > 100 µM (inactive) | GI50 (K562): > 100 µM (inactive) | GI50 (KM12): > 100 µM (inactive) | GI50 (LOX IMVI): > 100 µM (inactive) | GI50 (M14): > 100 µM (inactive) | GI50 (MDA-MB-231): > 100 µM (inactive) | GI50 (MDA-MB-435): > 100 µM (inactive) | GI50 (MDA-N): > 100 µM (inactive) | GI50 (MOLT-4): > 100 µM (inactive) | GI50 (Malme-3M): > 100 µM (inactive) | GI50 (NCI-H226): > 100 µM (inactive) | GI50 (NCI-H23): > 100 µM (inactive) | GI50 (NCI-H460): > 100 µM (inactive) | GI50 (NCI-H522): > 100 µM (inactive) | GI50 (NCI/ADR-RES): > 100 µM (inactive) | GI50 (OVCAR-3): > 100 µM (inactive) | GI50 (OVCAR-4): > 100 µM (inactive) | GI50 (OVCAR-5): > 100 µM (inactive) | GI50 (OVCAR-8): > 100 µM (inactive) | GI50 (RPMI-8226): > 100 µM (inactive) | GI50 (RXF 393): > 100 µM (inactive) | GI50 (SF-268): > 100 µM (inactive) | GI50 (SF-295): > 100 µM (inactive) | GI50 (SF-539): > 100 µM (inactive) | GI50 (SK-MEL-28): > 100 µM (inactive) | GI50 (SK-MEL-5): > 100 µM (inactive) | GI50 (SK-OV-3): > 100 µM (inactive) | GI50 (SN12C): > 100 µM (inactive) | GI50 (SNB-19): > 100 µM (inactive) | GI50 (SNB-75): > 100 µM (inactive) | GI50 (SW-620): > 100 µM (inactive) | GI50 (T47D): > 100 µM (inactive) | GI50 (TK-10): > 100 µM (inactive) | GI50 (U-251): > 100 µM (inactive) | GI50 (UACC-257): > 100 µM (inactive) | GI50 (UO-31): > 100 µM (inactive)

— ChEMBL document CHEMBL1201862, “PubChem BioAssay data set” (2004)
